From PubChem BioAssay (NCI)
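Assay format: 96-well plates, 48-hour exposure. Definition used: TGI = concentration required for complete inhibition of growth.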

Tests used:
Test in all cases: NCI anticancer screen, dose series, 48 h
[1] = system: M19-MEL melanoma
[2] = system: SR leukemia
[3] = system: HL-60(TB) leukemia
[4] = system: DLD-1 colon
[5] = system: HCT-15 colon
[6] = system: OVCAR-5 ovarian
[7] = system: KM12 colon
[8] = system: EKVX NSCLC
[9] = system: TK-10 renal
[10] = system: CCRF-CEM leukemia
[11] = system: RXF-631 renal
[12] = system: HOP-92 NSCLC
[13] = system: OVCAR-3 ovarian
[14] = system: SF-295 CNS
[15] = system: ACHN renal
[16] = system: M14 melanoma
[17] = system: HT29 colon
[18] = system: SN12C renal
[19] = system: OVCAR-8 ovarian
[20] = system: SK-MEL-5 melanoma
[21] = system: IGROV1 ovarian
[22] = system: RXF 393 renal
[23] = system: A498 renal
[24] = system: K-562 leukemia
[25] = system: 786-0 renal
[26] = system: SNB-19 CNS
[27] = system: COLO 205 colon
[28] = system: HOP-18 NSCLC
[29] = system: MOLT-4 leukemia
[30] = system: SNB-78 CNS
[31] = system: UACC-62 melanoma
[32] = system: LXFL 529 NSCLC
[33] = system: UO-31 renal
[34] = system: U251 CNS
[35] = system: HCT-116 colon
[36] = system: NCI-H460 lung
[37] = system: SW-620 colon
[38] = system: MALME-3M melanoma
[39] = system: A549 NSCLC
[40] = system: OVCAR-4 ovarian
[41] = system: SK-MEL-2 melanoma
[42] = system: HCC-2998 colon
[43] = system: SF-539 CNS
[44] = system: KM20L2 colon
[45] = system: SF-268 CNS
[46] = system: UACC-257 melanoma
[47] = system: NCI-H23 lung
[48] = system: SNB-75 CNS
[49] = system: NCI-H522 lung
[50] = system: HOP-62 NSCLC
[51] = system: SK-OV-3 ovarian
[52] = system: LOX IMVI melanoma
[53] = system: DMS 114 small cell lung
[54] = system: XF 498 CNS
[55] = system: DMS 273 small cell lung
[56] = system: RPMI-8226 leukemia
[57] = system: SK-MEL-28 melanoma
[58] = system: CAKI-1 renal
[59] = system: BT-549 breast
[60] = system: NCI/ADR-RES ovarian
[61] = system: MDA-MB-231 breast
[62] = system: HS 578T breast
[63] = system: DU-145 prostate
[64] = system: PC-3 prostate
[65] = system: T-47D breast
[66] = system: MCF7 breast
[67] = system: MDA-N
[68] = system: MDA-MB-435
[69] = system: NCI-H226 lung

Measured: TGI

CC/C(CC(=O)CCC(=O)Nc1c(C)cccc1C)=N\NC(=O)NN
not listed: [48] | [49] | [50] | [51] | [52] | [53] | [54] | [55] | [56] | [57] | [58] | [59] | [60] | [61] | [62] | [63] | [64] | [65] | [66] | [67] | [68] | [69]
> 100 µM: all other assays above

Cc1cc2c(c(C(N)=O)c1C)-c1cccc(Cl)c1C2=O
not listed: [1] | [2] | [22] | [28] | [58] | [59] | [60] | [61] | [62] | [63] | [64] | [65] | [66] | [67] | [68] | [69]
> 100 µM: all other assays above

O=C1C=CC(=O)c2c(O)c(CO)c(CO)c(O)c21
1.64 µM: [48]
0.939 µM: [22]
0.736 µM: [67]
1.12 µM: [20]
0.593 µM: [59]
0.665 µM: [54]
0.662 µM: [35]
0.723 µM: [25]
0.239 µM: [49]
2.79 µM: [36]
5.03 µM: [8] | [69]
3.93 µM: [45]
0.674 µM: [52]
0.216 µM: [1]
0.481 µM: [2]
0.741 µM: [17]
2.74 µM: [61]
1.3 µM: [47]
0.337 µM: [66]
0.171 µM: [27]
2.4 µM: [50]
0.842 µM: [9]
1.66 µM: [68]
0.288 µM: [37]
0.351 µM: [32]
4.78 µM: [42]
1.05 µM: [15]
0.188 µM: [29]
0.878 µM: [53]
0.202 µM: [4]
2.2 µM: [33]
1.71 µM: [13] | [43]
2.55 µM: [11]
1.88 µM: [31]
0.467 µM: [38]
5.35 µM: [34]
0.814 µM: [56]
6.13 µM: [26]
5.58 µM: [39]
3.27 µM: [63]
0.49 µM: [5]
1.52 µM: [65]
8.2 µM: [60]
3.19 µM: [7] | [14]
0.581 µM: [40]
2.58 µM: [41]
0.96 µM: [57]
1.42 µM: [55]
0.195 µM: [10]
4.14 µM: [21]
0.411 µM: [16]
0.883 µM: [46]
18 µM: [51]
0.774 µM: [18]
3.64 µM: [23]
3.54 µM: [6]
2.25 µM: [44]
0.944 µM: [12]
3.52 µM: [30]
4.37 µM: [64]
0.405 µM: [3]
0.875 µM: [58]
13.4 µM: [24]
2.04 µM: [19]
4.71 µM: [62]

Cc1ccc(S(=O)(=O)N/N=C(/CC(=O)c2c(C)n([O-])c3ccccc3[n+]2=O)C(=O)Nc2ccc(C)c(C)c2)cc1
63.1 µM: [13]
67.2 µM: [53]
42.6 µM: [1]
not listed: [2] | [3] | [9] | [10] | [12] | [19] | [20] | [24] | [29] | [52] | [54] | [59] | [60] | [61] | [62] | [63] | [64] | [65] | [66] | [67] | [68]
> 100 µM: all other assays above
